#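 Tested at 5 concentrations; 48 h exposure; 96-well plates; endpoints linearly interpolated, else capped at highest concentration. The concentration for 50% growth inhibition is given as GI50. TGI: total growth inhibition.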
# What was measured:
# Assay in all cases: NCI tumour cell line growth inhibition, 48 h
# COLO 205 colon = tested on: COLO 205 colon
# EKVX NSCLC = tested on: EKVX NSCLC
# HCT-15 colon = tested on: HCT-15 colon
# NCI-H460 lung = tested on: NCI-H460 lung
# SK-MEL-2 melanoma = tested on: SK-MEL-2 melanoma
# SK-MEL-5 melanoma = tested on: SK-MEL-5 melanoma
# SW-620 colon = tested on: SW-620 colon
# DU-145 prostate = tested on: DU-145 prostate
# MDA-MB-435 = tested on: MDA-MB-435
# SF-539 CNS = tested on: SF-539 CNS
SMILES,TGI (COLO 205 colon),TGI (EKVX NSCLC),TGI (HCT-15 colon),TGI (NCI-H460 lung),TGI (SK-MEL-2 melanoma),TGI (SK-MEL-5 melanoma),TGI (SW-620 colon),GI50 (COLO 205 colon),GI50 (DU-145 prostate),TGI (DU-145 prostate),GI50 (EKVX NSCLC),GI50 (HCT-15 colon),GI50 (MDA-MB-435),TGI (MDA-MB-435),GI50 (NCI-H460 lung),GI50 (SF-539 CNS),TGI (SF-539 CNS),GI50 (SK-MEL-2 melanoma),GI50 (SK-MEL-5 melanoma),GI50 (SW-620 colon)
COc1ccc(/C=C2\Cc3ccccc3C2=O)cc1OC,> 100 µM,> 100 µM,> 100 µM,> 100 µM,> 100 µM,> 100 µM,> 100 µM,–,–,–,–,–,–,–,–,–,–,–,–,–
COc1ccc(-c2ccc(/C=C/C(=O)NO)cc2)cc1,10.1 µM,12.9 µM,58.7 µM,4.46 µM,37.6 µM,3 µM,> 100 µM,2.34 µM,0.394 µM,4.45 µM,2.23 µM,0.468 µM,2120 nM,> 100 µM,0.142 µM,913 nM,5.18 µM,5.11 µM,1.1 µM,754 nM
c1ccc2c(CNCCCCCCNCc3cccc4ccccc34)cccc2c1,3.12 µM,26.4 µM,19.8 µM,3.75 µM,3.02 µM,19.9 µM,14.1 µM,–,–,–,–,–,–,–,–,–,3.48 µM,–,–,–
COc1ccc(OC)c(-c2nc3sccn3c2/C=C2/C(=O)Nc3ccc(Cl)cc32)c1,39.5 µM,> 100 µM,58.9 µM,65 µM,35.2 µM,33.1 µM,> 100 µM,18.5 µM,41.3 µM,> 100 µM,36.1 µM,23.1 µM,17200 nM,44.9 µM,26 µM,24300 nM,60.9 µM,17.5 µM,17.4 µM,31200 nM
COC(=O)C[CH](C(=O)OC)[Ge]([CH3])([CH3])[S]c1ccccc1 (stereo unspecified),27.1 µM,75.2 µM,27.6 µM,28.8 µM,> 100 µM,> 100 µM,26.8 µM,13.9 µM,–,–,16.1 µM,13.2 µM,–,–,15.5 µM,22100 nM,39.7 µM,16.2 µM,33.1 µM,13000 nM
COC(=O)/C=C/C(=O)C1C(C(=O)OC)C2(C(=O)OC)CCC1(C(=O)OC)N2 (stereo unspecified),> 100 µM,> 100 µM,> 100 µM,–,> 100 µM,> 100 µM,–,–,–,–,–,–,–,–,–,–,> 100 µM,–,–,–
C=CN1C(=O)OC(c2ccccc2)C1c1ccccc1 (stereo unspecified),> 100 µM,> 100 µM,> 100 µM,> 100 µM,> 100 µM,> 100 µM,> 100 µM,> 100 µM,–,–,> 100 µM,> 100 µM,–,–,> 100 µM,–,> 100 µM,> 100 µM,> 100 µM,–
CC(C)[C@@H]1C=C(c2ccccc2)c2ccccc2C1C(C#N)(C#N)C(C)C (stereo partly specified),> 100 µM,> 100 µM,> 100 µM,> 100 µM,> 100 µM,> 100 µM,> 100 µM,–,–,–,–,–,–,–,–,–,> 100 µM,–,–,–
COc1cc([C@@H]2c3cc4c(cc3[C@@H](NC(=O)c3ccc(N)cc3)C3COC(=O)[C@@H]32)OCO4)cc(OC)c1O (stereo partly specified),28.4 µM,23.7 µM,32 µM,10.9 µM,28.3 µM,21.6 µM,20.8 µM,–,–,–,–,–,–,–,–,–,3.87 µM,–,–,–
N#Cc1cccc(NC(=O)c2ccc(C(=O)O)c(C(=O)c3ccc(C(=O)O)c(C(=O)Nc4cccc(C#N)c4)c3)c2)c1,> 100 µM,> 100 µM,> 100 µM,> 100 µM,> 100 µM,> 100 µM,> 100 µM,–,–,–,–,–,–,–,–,–,> 100 µM,–,–,–
O=C(/C=C/c1ccc(C(F)(F)F)cc1)c1ccc(Nc2nc(NCCO)nc(NCCO)n2)cc1,4.22 µM,16.8 µM,11.3 µM,10.6 µM,–,10.5 µM,4.25 µM,2.05 µM,4.03 µM,14.3 µM,3.49 µM,3.07 µM,3820 nM,14.2 µM,3.23 µM,1680 nM,3.38 µM,–,3.12 µM,1970 nM
COc1ccc(-c2nn(-c3cccc(Cl)c3)cc2C=C(C#N)C#N)cc1,10.5 µM,–,> 100 µM,5.37 µM,4.83 µM,5.87 µM,5.45 µM,4.04 µM,3.55 µM,90.1 µM,–,3.24 µM,–,–,2.05 µM,2300 nM,5.44 µM,2.37 µM,2.28 µM,1900 nM
CCC1C(C)c2c([nH]c3ccccc23)C2C(=O)N(c3ccccc3)C(=O)C21 (stereo unspecified),30.7 µM,38.3 µM,31.2 µM,28.2 µM,–,28.8 µM,35.9 µM,–,–,–,–,–,–,–,–,–,34.5 µM,–,–,–
OCC(O)C(O)c1nn(-c2ccccc2)c2nc3cc(Cl)c(Cl)cc3nc12 (stereo unspecified),86.4 µM,> 100 µM,> 100 µM,82.1 µM,74.1 µM,> 100 µM,> 100 µM,–,–,–,–,–,–,–,–,–,71 µM,–,–,–
Cc1nc(C)c(C(=O)Nc2cccc3c2C(=O)NC3=O)cc1C(=O)Nc1cccc2c1C(=O)NC2=O,> 100 µM,> 100 µM,> 100 µM,> 100 µM,> 100 µM,> 100 µM,> 100 µM,–,–,–,–,–,–,–,–,–,> 100 µM,–,–,–
O=C(CC(=O)N1N=C(c2ccccc2)C(N=Nc2ccc(C(=O)O)cc2)C1=O)Nc1ccc(F)cc1 (stereo unspecified),> 100 µM,77.1 µM,> 100 µM,> 100 µM,41.8 µM,46.9 µM,> 100 µM,–,–,–,–,–,–,–,–,–,54.5 µM,–,–,–
O=C1c2ccccc2C(=O)c2c1ccc(C(Br)Br)c2[N+](=O)[O-],–,4.58 µM,2.93 µM,5.09 µM,4.09 µM,3.73 µM,2.07 µM,–,1.98 µM,4.01 µM,1.96 µM,1.52 µM,1760 nM,3.29 µM,1.89 µM,1760 nM,3.41 µM,1.91 µM,1.77 µM,488 nM
CC1=NNC(=NCCN(C)C)C/C1=C/c1ccccc1Cl,> 100 µM,> 100 µM,> 100 µM,> 100 µM,> 100 µM,> 100 µM,> 100 µM,–,–,–,–,–,–,–,–,–,> 100 µM,–,–,–
